Measured values as given in patent publication US10111875B2, “Pyrrolopyrimidine compounds and uses thereof” (HUTCHISON MEDIPHARMA LIMITED, priority 2010, dated 2018).
Like-named read-outs stand apart in the source and are kept apart here.

Biological target: Recombinant human JAK1 catalytic domain (Homo sapiens (Human), UniProt P23458)
Assay: JAK1 kinase assay (Z'-LYTE Tyr 6 Peptide)
Assay type: biochemical
Conditions: read-out: inhibition percentage (IR %)
Description: JAK1/2/3 kinase assay are performed in vitro using Kit-Tyr 6 Peptide (Invitrogen, Cat. No. PV4122). TYK2 kinase assay are performed in vitro using Z′-LYTE™ Kinase Assay Kit-Tyr 3 Peptide (Invitrogen, Cat. No. PV3192). […] All compounds are initially tested at 8 different concentrations (1 μM down to 0.0003 μM) using a 1:3 serial dilution scheme.

[1] = JAK1 kinase assay, 0.3 uM concentration

Sequence of Recombinant human JAK1 catalytic domain (P23458 875-1153): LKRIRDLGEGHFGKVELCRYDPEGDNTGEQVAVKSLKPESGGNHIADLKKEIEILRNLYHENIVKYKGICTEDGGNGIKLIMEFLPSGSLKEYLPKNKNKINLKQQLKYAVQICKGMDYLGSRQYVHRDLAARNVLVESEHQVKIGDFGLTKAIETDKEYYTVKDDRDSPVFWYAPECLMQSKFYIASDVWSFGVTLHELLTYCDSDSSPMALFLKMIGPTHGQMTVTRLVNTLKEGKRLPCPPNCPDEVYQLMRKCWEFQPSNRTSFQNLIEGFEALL

inhibition at 0.3 µM [1]	SMILES	inhibition at 0.3 µM
50 to 100%	CN(c1ccc(Br)cn1)[C@@H]1CCN(c2ncnc3[nH]ccc23)C1 [Compound 68]	
50 to 100%	CN(c1ccc([N+](=O)[O-])cn1)[C@@H]1CCN(c2ncnc3[nH]ccc23)C1 [Compound 70]	
50 to 100%	CN(c1ccc(C#N)cn1)[C@@H]1CCN(c2ncnc3[nH]ccc23)C1 [Compound 71]	
50 to 100%	Cc1cc(N(C)[C@@H]2CCN(c3ncnc4[nH]ccc34)C2)nc(Cl)c1C#N [Compound 72]	
50 to 100%	Cc1cc(Cl)nc(N(C)[C@@H]2CCN(c3ncnc4[nH]ccc34)C2)c1C#N [Compound 73]	
50 to 100%	CN(c1ncc([N+](=O)[O-])cc1Cl)[C@@H]1CCN(c2ncnc3[nH]ccc23)C1 [Compound 74]	
20 to 50%	Cc1cc([N+](=O)[O-])cnc1N(C)[C@@H]1CCN(c2ncnc3[nH]ccc23)C1 [Compound 75]	
20 to 50%	CN(c1ccc(C#N)nc1)[C@@H]1CCN(c2ncnc3[nH]ccc23)C1 [Compound 76]	
50 to 100%	Cc1cc(N(C)[C@@H]2CCN(c3ncnc4[nH]ccc34)C2)ncc1[N+](=O)[O-] [Compound 77]	
20 to 50%	CN(c1ccc([N+](=O)[O-])c(N)n1)[C@@H]1CCN(c2ncnc3[nH]ccc23)C1 [Compound 78]	
50 to 100%	CN(c1nc(Cl)nc2ccccc12)[C@@H]1CCN(c2ncnc3[nH]ccc23)C1 [Compound 79]	
50 to 100%	CN(c1ncnc2ccccc12)[C@@H]1CCN(c2ncnc3[nH]ccc23)C1 [Compound 80]	
50 to 100%	N#Cc1ccc(N[C@@H]2CCN(c3ncnc4[nH]ccc34)C2)nc1 [Compound 81]	
50 to 100%	CN(c1ncc(C#N)cc1Cl)[C@@H]1CCN(c2ncnc3[nH]ccc23)C1 [Compound 83]	
50 to 100%	CN(c1cnc(C#N)cn1)[C@@H]1CCN(c2ncnc3[nH]ccc23)C1 [Compound 84]	
50 to 100%	CN(c1ccc(Cl)nn1)[C@@H]1CCN(c2ncnc3[nH]ccc23)C1 [Compound 85]	
50 to 100%	COc1cc2ncnc(N(C)[C@@H]3CCN(c4ncnc5[nH]ccc45)C3)c2cc1OC [Compound 86]	
50 to 100%	CN(c1nc(Cl)c(C#N)cc1F)[C@@H]1CCN(c2ncnc3[nH]ccc23)C1 [Compound 87]	
20 to 50%	CN(c1ccn2nccc2n1)[C@@H]1CCN(c2ncnc3[nH]ccc23)C1 [Compound 88]	
50 to 100%	CN(c1ncc(Br)cc1C#N)[C@@H]1CCN(c2ncnc3[nH]ccc23)C1 [Compound 89]	
50 to 100%	CN(c1ccc(C#N)c(Cl)n1)[C@@H]1CCN(c2ncnc3[nH]ccc23)C1 [Compound 90]	
50 to 100%	CN(c1cccc(C#N)n1)[C@@H]1CCN(c2ncnc3[nH]ccc23)C1 [Compound 91]	
50 to 100%	CN(c1ccc(C#N)cn1)[C@@H]1CCN(c2ccnc3[nH]ccc23)C1 [Compound 92]	
50 to 100%	CN(c1ncc(Br)cn1)[C@@H]1CCN(c2ncnc3[nH]ccc23)C1 [Compound 94]	

inhibition at 0.3 µM [1]	SMILES	inhibition at 0.3 µM
50 to 100%	CN(c1ncc(C#N)s1)[C@@H]1CCN(c2ncnc3[nH]ccc23)C1 [Compound 95]	
50 to 100%	CN(c1ncc(C#N)cc1[N+](=O)[O-])[C@@H]1CCN(c2ncnc3[nH]ccc23)C1 [Compound 96]	
50 to 100%	N#Cc1cnc(N[C@@H]2CCN(c3ncnc4[nH]ccc34)C2)c([N+](=O)[O-])c1 [Compound 97]	
50 to 100%	CCCN(c1ccc(C#N)cn1)[C@@H]1CCN(c2ncnc3[nH]ccc23)C1 [Compound 98]	
50 to 100%	CN(c1ncc(C#N)cc1Br)[C@@H]1CCN(c2ncnc3[nH]ccc23)C1 [Compound 99]	
20 to 50%	Cc1cc(C#N)cnc1N(C)[C@@H]1CCN(c2ncnc3[nH]ccc23)C1 [Compound 100]	
50 to 100%	Cc1ccc(N(C)[C@@H]2CCN(c3ncnc4[nH]ccc34)C2)nc1 [Compound 101]	
50 to 100%	CN(c1ccc(C#N)cn1)[C@H]1CCN(c2ncnc3[nH]ccc23)C1 [Compound 102]	
50 to 100%	CN(c1ccc(C#N)cc1F)[C@@H]1CCN(c2ncnc3[nH]ccc23)C1 [Compound 103, (R)-4-((1-(7H-pyrrolo[2,3-d]pyrimidin-4-yl)pyrrolidin-3-yl)(methyl)amino)-3-fluorobenzonitrile]	
50 to 100%	CN(c1ccc(C#N)cc1)[C@@H]1CCN(c2ncnc3[nH]ccc23)C1 [Compound 104]	
50 to 100%	CN(c1cc(F)c(C#N)c(F)c1)[C@@H]1CCN(c2ncnc3[nH]ccc23)C1 [Compound 106]	
50 to 100%	CN(c1ccc(C#N)cc1[N+](=O)[O-])[C@@H]1CCN(c2ncnc3[nH]ccc23)C1 [Compound 107]	
50 to 100%	CN(c1c(F)cc(C#N)cc1F)[C@@H]1CCN(c2ncnc3[nH]ccc23)C1 [Compound 108]	
20 to 50%	CN(c1ccc(C#N)cc1C(F)(F)F)[C@@H]1CCN(c2ncnc3[nH]ccc23)C1 [Compound 109]	
	CN(c1cc(Cl)c(C#N)cc1F)[C@@H]1CCN(c2ncnc3[nH]ccc23)C1 [Compound 110]	20 to 50%
50 to 100%	CN(c1ccc(C#N)c2ccccc12)[C@@H]1CCN(c2ncnc3[nH]ccc23)C1 [Compound 111]	
50 to 100%	CN(c1ccc(C#N)cc1Cl)[C@@H]1CCN(c2ncnc3[nH]ccc23)C1 [Compound 112]	
20 to 50%	CN(c1ccc(C#N)c(C#N)c1)[C@@H]1CCN(c2ncnc3[nH]ccc23)C1 [Compound 113]	
50 to 100%	CN(c1ccc(C#N)c(Br)c1)[C@@H]1CCN(c2ncnc3[nH]ccc23)C1 [Compound 114]	
50 to 100%	CN(c1ccc(C#N)cc1Br)[C@@H]1CCN(c2ncnc3[nH]ccc23)C1 [Compound 115]	
	CN(c1ccc(C#N)c(Cl)c1)[C@@H]1CCN(c2ncnc3[nH]ccc23)C1 [Compound 116]	20 to 50%
50 to 100%	CN(c1c(F)c(F)c(C#N)c(F)c1F)[C@@H]1CCN(c2ncnc3[nH]ccc23)C1 [Compound 117]	
20 to 50%	CN(c1cc(F)cc(F)c1C#N)[C@@H]1CCN(c2ncnc3[nH]ccc23)C1 [Compound 118]	
50 to 100%	CN(c1cccc(C#N)c1)[C@@H]1CCN(c2ncnc3[nH]ccc23)C1 [Compound 119, (R)-3-((1-(7H-pyrrolo[2,3-d]pyrimidin-4-yl)pyrrolidin-3-yl)(methyl)amino)benzonitrile]	

inhibition at 0.3 µM [1]	SMILES	inhibition at 0.3 µM
20 to 50%	CN(c1ccc(S(C)(=O)=O)cc1)[C@@H]1CCN(c2ncnc3[nH]ccc23)C1 [Compound 120, (R)—N-methyl-N-(4-(methylsulfonyl)phenyl)-1-(7H-pyrrolo[2,3-d]pyrimidin-4-yl)pyrrolidin-3-amine]	
50 to 100%	CN(c1ccnc(C#N)c1)[C@@H]1CCN(c2ncnc3[nH]ccc23)C1 [Compound 121]	
50 to 100%	CN(c1ccc(S(=O)(=O)C(F)(F)F)cc1)[C@@H]1CCN(c2ncnc3[nH]ccc23)C1 [Compound 122]	
50 to 100%	CN(c1ccc(C(F)(F)F)cn1)[C@@H]1CCN(c2ncnc3[nH]ccc23)C1 [Compound 123]	
50 to 100%	N#Cc1ccc(N(CC2CC2)[C@@H]2CCN(c3ncnc4[nH]ccc34)C2)nc1 [Compound 124]	
50 to 100%	CCN(c1ccc(C#N)cn1)[C@@H]1CCN(c2ncnc3[nH]ccc23)C1 [Compound 126, (R)-6-((1-(7H-pyrrolo[2,3-d]pyrimidin-4-yl)pyrrolidin-3-yl)(ethyl)amino)-nicotinonitrile]	
50 to 100%	C#CCN(c1cnc(C#N)cn1)[C@@H]1CCN(c2ncnc3[nH]ccc23)C1 [Compound 127]	
50 to 100%	C#CCN(c1c(F)cc(C#N)cc1F)[C@@H]1CCN(c2ncnc3[nH]ccc23)C1 [Compound 129]	
20 to 50%	C#CCN(c1ccc(C#N)cc1F)[C@@H]1CCN(c2ncnc3[nH]ccc23)C1 [Compound 130]	
50 to 100%	C#CCN(c1ccc(C#N)cc1)[C@@H]1CCN(c2ncnc3[nH]ccc23)C1 [Compound 131]	
50 to 100%	CCN(c1c(F)cc(C#N)cc1F)[C@@H]1CCN(c2ncnc3[nH]ccc23)C1 [Compound 132]	
50 to 100%	CCN(c1ccc(C#N)cc1F)[C@@H]1CCN(c2ncnc3[nH]ccc23)C1 [Compound 133]	
20 to 50%	CN(c1cnc(NCCO)cn1)[C@@H]1CCN(c2ncnc3[nH]ccc23)C1 [Compound 135]	
50 to 100%	CCOc1cnc(N(C)[C@@H]2CCN(c3ncnc4[nH]ccc34)C2)cn1 [Compound 136]	
50 to 100%	CN(c1cnc(NCC2CC2)cn1)[C@@H]1CCN(c2ncnc3[nH]ccc23)C1 [Compound 138]	
20 to 50%	COc1nccc(N(C)[C@@H]2CCN(c3ncnc4[nH]ccc34)C2)n1 [Compound 141]	
	CN(c1ccc(-c2ccncc2)cn1)[C@@H]1CCN(c2ncnc3[nH]ccc23)C1 [Compound 144]	50 to 100%
20 to 50%	CN(c1ccc(-c2ccc(C#N)cc2)cn1)[C@@H]1CCN(c2ncnc3[nH]ccc23)C1 [Compound 146]	
50 to 100%	CN(c1ccc(-c2cccs2)cn1)[C@@H]1CCN(c2ncnc3[nH]ccc23)C1 [Compound 147]	
20 to 50%	CN(c1ccc(C#N)cc1-c1cccc(C#N)c1)[C@@H]1CCN(c2ncnc3[nH]ccc23)C1 [Compound 148]	
50 to 100%	CN(c1ccc(-c2cn[nH]c2)cn1)[C@@H]1CCN(c2ncnc3[nH]ccc23)C1 [Compound 150]	
50 to 100%	CN(c1cnc(-c2ccn[nH]2)cn1)[C@@H]1CCN(c2ncnc3[nH]ccc23)C1 [Compound 152]	
50 to 100%	CN(c1ccncn1)[C@@H]1CCN(c2ncnc3[nH]ccc23)C1 [Compound 154, (R)—N-(1-(7H-pyrrolo[2,3-d]pyrimidin-4-yl)pyrrolidin-3-yl)-N-methylpyrimidin-4-amine]	
